Measurements taken from paper PMC4171606, “A novel copper(I) complex induces ER-stress-mediated apoptosis and sensitizes B-acute lymphoblastic leukemia cells to chemotherapeutic agents” (Oncotarget, 2014).
Read-outs that look alike come from different tables or passages of the source.

Experiments:
[1] = test system: RS4;11 cells; test: Combined drugs analysis, MTT 48 h, Chou and Talalay; type: cell-based; conditions: Homo sapiens
Procedure: (§1) SEM and RS4;11 cell lines were exposed to dexamethasone (Dex), daunorubicine (Dauno), cytarabine (Ara-C) and vincristine (Vcr) in the presence or absence of CP, at fixed combination ratios.
(§2) To test potential synergistic, additive, or antagonistic effects of the combination of CP and drugs commonly used in B-ALL treatment, we performed MTT experiments as follows.
(§3) SEM, and RS4;11 cells were treated for 48 hours with one of the most used chemotherapeutic agents: cytarabine (Aractyn, Pfizer), daunorubicin (Pfizer), vincristine (Pfizer), or dexamethasone (Sigma-Aldrich). CP was also added to each drug solution, at fixed combination ratios. Cell viability was determined after 48 hours of treatment by MTT test as described above. To determine the synergistic, additive, or antagonistic effects of the drug combinations, we used CalcuSyn software (version 2.0, Biosoft, Cambridge, United Kingdom) based on the method of the combination index (CI) described by Chou and Talalay. Synergy, additivity and antagonism were defined by a CI<1, CI=1, or CI>1, respectively.

[2] = test system: SEM cells; test: as above; type: cell-based; conditions: Homo sapiens
Procedure: as §1, §2, §3

[3] = test system: RS4;11 and SEM cells; test: Annexin-V/PI assay with CP in presence of cycloheximide, 12 h; type: cell-based, human; conditions: CHX 2 μg/ml with CP 2.5 μM
Procedure: To investigate if proteasome inhibition and ER stress could be responsible for CP-induced cell death, we assayed apoptosis and ER stress markers in the presence of cycloheximide (CHX), an inhibitor of protein synthesis that antagonizes ER-stress agents. The inhibition of protein synthesis reduced the accumulation of unfolded proteins in the ER and therefore ER-stress induced apoptosis.
Furthermore, CHX induced a remarkable reduction of GRP78 and CHOP expression, induced after 12 h of treatment with CP, when CHOP and GRP78 were highly expressed (Figure 5, panel C).
FIGURE 5 CP induces ER stress mediated apoptosis SEM (A) and RS4;11 (B) cells were incubated with CP (2.5 μM) in the presence or absence of cycloheximide (CHX) for 12 h, at the concentration of 2 μg/ml. Cells were analyzed by flow cytometry after double staining with Annexin-V-FITC and PI. Data are represented as mean ± S.E.M of three independent experiments. *p<0.05. (B) Western blot analysis showing the expression of GRP78 and CHOP after treatment of RS4;11 and SEM cells with CP (2.5 μM) for 12 h in the presence or absence of CHX (2 μg/ml).

[4] = test system: human leukemia cell lines; test: MTT growth inhibition, panel of twelve leukemia cell lines, 72 h; type: cell-based; conditions: all cell lines, same experimental conditions as CP, data not shown
Procedure: [Cu(thp)4][PF6] (CP) was evaluated for its growth inhibition activity on a panel of twelve different human leukemia cell lines (five B-acute lymphoblastic leukemia, three T-acute lymphoblastic leukemia, three acute myeloid leukemia and one chronic myeloid leukemia). Cells were treated for 72 h with CP and cell viability was evaluated by MTT test. […] This abnormal high expression of proteasomal proteins and mRNA seem to be correlated to the hyperproliferation of these cancer cells and to the sensitivity towards proteasome inhibitors.
The human leukemia cell lines RS 4;11, SEM, REH, RCH-ACV, MHH-CALL2, Jurkat, CCRF-CEM, HSB2, HL-60, K562, THP-1, MV4;11 were purchased from the American Type Culture Collection. Cells were cultured in RPMI 1640 (Life Technologies, Italy) supplemented with 10% fetal bovine serum (FBS), glutamine (2 mM; Life Technologies, Italy), penicillin (100 U/ml; Life Technologies, Italy) and streptomycin (100 μg/ml; Life Technologies, Italy), and maintained at 37°C in a humidified atmosphere with 5% CO2. The cytotoxic activity of CP was determined using a standard 3-[4,5-dimethylthiazol-2-yl]-2,5-diphenyltetrazodium bromide (MTT) based colorimetric assay (Sigma-Aldrich, Italy). Briefly, cells were seeded at a density of 2×10^4 cells/well in 96-well microtiter plates. After 24 h, cells were exposed to the test compound. After different times, cell survival was determined by the addition of an MTT solution as previously described.

[5] = test system: RS4;11 and SEM cells; test: MTT viability with CP in presence of pan-caspase inhibitor, 48 h; type: cell-based, human; conditions: z-VAD.fmk 100 μM with CP 2.5 μM and 5 μM
Procedure: FIGURE 2 CP induces caspase-dependent apoptosis without mitochondria involvement (A) Assessment of mitochondrial membrane potential (ΔΨmt) after treatment of RS4;11 and SEM cells with CP (2.5 μM) for the indicated times. Cells were stained with the fluorescent probe JC-1. Data are represented as mean ± S.E.M. of three independent experiments. (B) Flow cytometric analysis of RS4;11 and SEM cells treated with CP (2.5 μM) for 24 h showing cytochrome c labeled with a monoclonal antibody conjugated to FITC. Representative image of three experiments with similar results. (C) Cells were incubated with CP 2.5 μM and 5 μM in the presence or absence of the pan-caspase inhibitor z-VAD.fmk (100 μM). Cell viability was determined after 48 h by MTT assay. Data are represented as mean ± S.E.M. of three independent experiments performed in triplicate. *p<0.01 vs CP alone. (D) Western blot analysis of Bcl-2, cleaved caspase-12, caspase-9, cleaved caspase-7, caspase-3 and PARP after treatment of SEM and RS4;11 cells with CP (2.5 μM) for the indicated times. To confirm equal protein loading, each membrane was stripped and reprobed with anti-β-actin antibody.
We therefore evaluated whether the inhibition of caspases with the pan-caspase inhibitor z-VAD.fmk would prevent cell death.

[6] = RS4;11, 48 h, MTT, drug alone or with CP at fixed molar ratio, mean ± SE, read-out: GI50
[7] = SEM, MTT, drug alone or with CP at fixed molar ratio, mean ± SE, read-out: GI50

| Compound | GI50 [1, 6] | GI50 [2, 7] | other results |
| --- | --- | --- | --- |
| COc1cccc2c1C(=O)c1c(O)c3c(c(O)c1C2=O)C[C@@](O)(C(C)=O)C[C@@H]3O[C@H]1C[C@H](N)[C@H](O)[C@H](C)O1 [Dauno, daunorubicin] |  |  | GI50 ([1]; RS4-11, 48 h): 19.2 ± 1.9 nM; GI50 [2]: 96 ± 14.1 nM |
| C[C@@H]1C[C@H]2[C@@H]3CCC4=CC(=O)C=C[C@]4(C)[C@@]3(F)[C@@H](O)C[C@]2(C)[C@@]1(O)C(=O)CO [Dex, dexamethasone] | 0.12 ± 0.025 nM | 643 ± 44.2 nM |  |
| C[C@@H]1C[C@@H]([C@H](O)CC2CC(=O)NC(=O)C2)C(=O)[C@@H](C)C1 [CHX, cycloheximide] |  |  | protection from CP induced cell death [3]: significant protection from CP induced cell death |
| CC[C@]1(O)C[C@H]2CN(CCc3c([nH]c4ccccc34)[C@@](C(=O)OC)(c3cc4c(cc3OC)N(C=O)[C@H]3[C@@](O)(C(=O)OC)[C@H](OC(C)=O)[C@]5(CC)C=CCN6CC[C@]43[C@@H]65)C2)C1 [Vcr, vincristine] | 0.071 ± 0.042 nM | 13.1 ± 1.2 nM |  |
| [Cl][Cu][Cl] [CuCl2] |  |  | concentration giving only a slight reduction of cell viability [4]: > 250 µM |
| Nc1ccn([C@@H]2O[C@H](CO)[C@@H](O)[C@@H]2O)c(=O)n1 [AraC, cytarabine] | 21 ± 7.1 nM | 22.3 ± 1.8 nM |  |
| CC(C)[C@H](NC(=O)OCc1ccccc1)C(=O)N[C@@H](C)C(=O)NC(CC(=O)O)C(=O)CF (mixture of isomers) [z-VAD.fmk, N-[(benzyloxy)carbonyl]-L-Val-Ala-DL-Asp-fluoromethylketone] |  |  | cell viability of CP-treated cells [5]: significantly increased cell viability |
| [Cl][Cu] [CuCl] |  |  | concentration giving only a slight reduction of cell viability [4]: > 250 µM |
